# Measured values published in patent US7479267B2, “Cell-or organ-differentiation controllers and method of controlling morphogenesis by using the same” (Okayama Prefecture, priority 2000, dated 2009).
# Where two headings read alike, the source gives them in different places.
# What was measured:
# [1] = test system: Arabidopsis thaliana late-flowering mutant fca; format: in vivo
# Method: (§1) Arabidopsis thaliana late-flowering mutant fca (Accession No. N167) obtained from Arabidopsis Stock Center publicly established at the University of Nottingham (U.K.) and wild type plant Ler (Accession No. NW20) were grown at 23° C. under a day length condition of 16-h light/8-h dark cycle at 100 μE/m^2 light intensity and used in the experiments. As a medium, soil consisting of 2 Vermiculite (Asahi Kogyo), 2 Kureha molding for raising seedlings (KUREHA chemical industry Co., Ltd.) and 1 Vermiculite (Asahi Kogyo), which are stacked in layer as the lower, middle and the upper layers, respectively, was used.
# (§2) BSO was dissolved in water at a final concentration of 10^−1M and used as a stock solution. Then, the treatment solutions at 10^−3-10^−7M were prepared from the stock solution (FIGS. 1-3). Two to three plants were placed per a pot (about 40×50 mm) and the treatment solution was added dropwise around the shoot apex at 5 ml/day per a pot. The treatment was performed on day 0 (the initiation date of treatment), 1, 3, 5 and 7, which set of treatments was regarded as one processing.
# (§3) Glutathione treatment was performed after dissolving glutathione into the BSO solution at a concentration of 10^−4 M.
# (§4) The effect of treatment was estimated based on the number of rosette leaves and the elongation rate of floral stem. […] Cold treatment was performed at 4° C. concurrently with a chemical treatment.
# (§5) (3) BSO treatment and glutathione (GSH) treatment was concurrently performed. BSO solution (concentration: 10^−4 M) to which glutathione was added was used in the same manner as described above.
# (§6) An aqueous solution of hydrogen peroxide was prepared immediately before use. Two to three plants were placed per a pot (about 40×50 mm). On 17 days after imbibition and thereafter, the treatment solution was added dropwise around the shoot apex at 5 ml/day per a pot. The treatments were performed on day 0 (the initiation date of treatment), 1, 3, 5 and 7, which set of treatments was regarded as one processing. The time of floral transition was compared using the rosette leaf number as an index. […] The values are expressed as mean±standard error.
# as §6, with “As a redox-state regulator” for “An aqueous solution”, “cells, KCN or NaN3 was used. KCN or sodium azide” for “hydrogen peroxide”, “use and used at concentrations described in FIG. 6 or 7, respectively.” for “use.”, “mm)” for “mm). On 17 days after imbibition”, “and” for “and thereafter, the”, “pot. KCN or NaN3 treatment was started 17 days after imbibition.” for “pot.”
# [2] = test system: Arabidopsis thaliana late-flowering mutant fca; format: in vivo; remark: listed apart in the source
# Method: as §1, §2
# The effect of treatment was estimated based on the number of rosette leaves and the elongation rate of floral stem. […]
# An aqueous solution of hydrogen peroxide was prepared immediately before use. […] The values are expressed as mean±standard error.
# [3] = test system: Zinnia elegans L. (cv. Scarlet Frame); details: 60 mM hydrogen peroxide; 2 days after imbibition (FIG. 9)
# Method: Soft papers were laid in plastic dishes (100×15 mm) and seeded with Zinnia elegans L. (cv. Scarlet Frame) (15 seeds/dish). To the dish was added a solution of hydrogen peroxide up to 15 ml, and allowed to germinate (light condition, 50 μE/m^2, 16-h light/8-h dark cycle; temperature 27° C.). Aqueous solutions each containing hydrogen peroxide at the concentrations indicated in FIG. 9 were prepared immediately before use and applied to the seeds. Observation was performed on 2 days after imbibition (see FIG. 9). In the figure, the concentration of hydrogen peroxide (unit: mM) used in treatment is shown at the right downside of each panel.
# [4] = test system: Glycine max (cv: Tanbaguro); details: hydrogen peroxide 10^−3M; 23° C.; 1 week after imbibition; microscope
# Method: Soft papers were laid in plastic dishes (100×15 mm) and seeded with Glycine max (cv: Tanbaguro). To the dish was added 15 ml of an aqueous solution of hydrogen peroxide (10^−3M) for imbibition.
# [5] = test system: Triticum aesivum L. (cv. Shirasagi); details: 144 hours (6 days) after imbibition; hydrogen peroxide concentrations of FIG. 8
# From the text: Soft papers were laid in plastic dishes (100×15 mm), and seeded with Triticum aesivum L. (cv. Shirasagi) or Oryza sativa L. (cv. Nipponbare) (15 seeds/dish). […] In the figure, the values are expressed as mean±standard error.
# [6] = test system: Arabidopsis thaliana wild type plant Ler; details: hydrogen peroxide 10^−3M; 23° C.; 1 week after imbibition; microscope
# Method: Soft papers were laid in plastic dishes (100×15 mm) and seeded with Arabidopsis thaliana wild type plant Ler. To the dish was added 15 ml of an aqueous solution of hydrogen peroxide (10^−3M) for imbibition. Germination was allowed to arise at 23° C. and the root hair formation was observed 1 week after imbibition under a microscope.
# [7] = test system: Nicotina tabacum L. callus; experiment: Regulation of formation of adventitious bud in callus; format: cell-based; details: 0.1 mM BSO, 1 mM GSH or 1 mM GSSG in adventitious formation medium; 3 weeks after induction
# Method: Nicotina tabacum L. leaves grown aseptically was callused in a callus-inducible medium (an essential medium consisting of 1% agar and Murashige and Skoog medium (MS medium) supplied with 0.1 mg/L benzyladenine (BA) and […] naphthaleneacetic acid (NAA)). The resultant callus was transferred to an adventitious formation medium (an essential medium consisting of 1% agar and Murashige and Skoog medium (MS medium) supplied with 1 mg/L BA and […] NAA). To the adventitious-formation medium, 0.1 mM BSO, 1 mM GSH or 1 mM GSSG (oxidized glutathione) was added as a redox-state regulator. The same medium lacking in supplements was prepared and used as a control medium.
# [8] = test system: Arabidopsis thaliana wild type plant Ler; experiment: Regulation of flowering time in wild type plant Ler; format: in vivo
# Method: as §1, §2, §3, §4, §5
compound,measurement,setting,value
OO [hydrogen peroxide],time of floral transition based on the rosette leaf number,[1]; in vivo,accelerated
same,elongation rate of floral stem,[2]; in vivo,accelerated
same,cotyledon opening,[3],occurred earlier
same,order of emergence of cotyledons and root at germination,[3],cotyledons came out from the pericarp before root did
same,root hair formation,[4],not in the dish treated with hydrogen peroxide solution
same,cell elongation (length of coleoptile),[5],cells were elongated
same,root hair formation,[6],not in the dish treated with hydrogen peroxide solution
oxidized glutathione [GSSG],Adventitious buds/callus,[7],2-3 buds/callus
"CCCCS(=N)(=O)CCC(N)C(=O)O [BSO, L-buthionine sulfoximine]",flowering time,"[1]; fca, BSO treatment started 12 days after imbibition (FIG. 1A)",delayed
same,rosette leaf number compared with the water treated control group,"[1]; fca, BSO treatment started 17 days after imbibition, result 1 week afterward (FIG. 1C)",decreased
same,elongation rate of floral stem,"[2]; fca, BSO treatment started day 17, monitored for several months (FIG. 2)",faster than that of control group
same,bolting,[8]; Ler grown in an agar medium containing BSO just after germination,the bolting was delayed
same,transition to flowering,"[8]; Ler, BSO treatment started 12 days after imbibition (FIG. 1B)",significantly accelerated
same,Adventitious buds/callus,[7],30 or more buds/callus
"N[C@@H](CCC(=O)N[C@@H](CS)C(=O)NCC(=O)O)C(=O)O [GSH, glutathione]",transition to flowering at 1 mM GSH,[1]; in vivo,delay of the transition to flowering
same,transition to flowering with increasing GSH concentration,[1]; in vivo,acceleration of the transition to flowering as GSH concentration increased first
same,transition to flowering with increasing GSH concentration,"[8]; Ler, GSH given concurrently with BSO 10^−4 M, at the time when BSO accelerates flowering (FIG. 3A)",delay of the transition to flowering as GSH concentration increased
same,Adventitious buds/callus,[7],2-3 buds/callus
